Numbers after ± are expanded uncertainties.

For the series the following is noted: Crystal; Heating/Cooling curves.
In the case of `O=C=O` [carbon dioxide], the Triple point temperature came to 216.56 ± 0.2 K. On to `[N-]=[N+]=O` [nitrous oxide], for which the Triple point temperature came to 181.99 ± 0.2 K.

As to `FC(F)C(F)(F)F` [pentafluoroethane], the Triple point temperature was 173.05 ± 0.2 K.
